# Assays:
# pS240/244 S6RP = experiment: In vivo target inhibition in U87MG tumors, pS240/244 S6RP; settings: Mus musculus, U-87 MG; for inhibition at 0.5 mg/kg: 0.5 mg/kg oral; for inhibition at 1.5 mg/kg: 1.5 mg/kg oral; for inhibition at 3 mg/kg: 3 mg/kg oral; for inhibition at 6 mg/kg: 6 mg/kg oral; for inhibition at 10 mg/kg: 10 mg/kg oral; for inhibition at 12 mg/kg: 12 mg/kg oral
# Description: Implant U87MG human glioblastoma cells (5×10^6) subcutaneously into the flank of athymic nude mice in 0.2 mL of matrigel. Ten days post-implantation, dose mice orally according to a time course, single dose/single time point, or dose response protocol for the determination of TMED50 (threshold minimum effective dose). Flash freeze tumors at harvest and collect blood for the determination of parent compound plasma exposure and the calculation of TMEC50 (threshold minimum effective concentration) in the case of dose response studies. Homogenize tumors in 500 μL of XY Lysis Buffer (10 μg/mL Leupeptin, 10 μg/mL Trypsin-Chymotrypsin Inhibitor, 10 μg/mL Tosyl phenyl-alanyl chloromethyl ketone, 10 μg/mL Aprotinin, 60 mM Beta-Glycerol Phosphate, 1% Triton X100, 25 mM Tris pH 7.5, 2.5 mM Pyrophosphate, 150 mM NaCl, 2 mM p-tosyl-L-arginine methyl ester, 15 mM para-nitrophenyl phosphate, 5 mM benzamidine, 1 mM sodium vanadate, 10 mM sodium fluoride, 50 μg/mL phenyl-methane sulfonyl fluoride, 1 mM 1,4-dithiothreitol (DTT), 15 mM EDTA pH 8.0, 5 mM EGTA pH 8.0, 1 μM Microcystin, 1 μM Okadaic Acid, and 1 Roche Complete protease inhibitor mini-tablet per 10 mL) using RNase Free Pellet Pestle (Kimble-Kontes). Aliquot lysates and either assay immediately or store at −80° C. for later testing. Use the multiplex format of Meso Scale Discovery (Gaithersburg, Md.) ELISA technology and measure in vivo target inhibition of PI3K and mTOR to assess effects on phosphorylation of the threonine 308 site of AKT, a downstream effector of PI3K; phosphorylation on the threonine 389 site of p70 S6K and on the serine 240/244 site of S6RP, downstream effectors of mTORC1; phosphorylation of the serine 473 site of AKT, a downstream effector of mTORC2. Add 20 μg of lysate to carbon electrode containing 96-well plates pre-spotted with the appropriate capture antibodies. Probe the protein of interest using a ruthenium labeled detection antibody. Pass current over the electrode in the presence of read buffer containing the co-reactant TPA, and quantitate and record the light generated by electro-chemiluminescence with the MSD Sector 6000 instrument. Calculate percent inhibitions relative to the vehicle control group and perform ANOVA analysis using the JMP software package for the determination of statistical significance.
# AKT1(pS473) = experiment: AlphaScreen SureFire p-AKT (Ser473) in U87MG cells; type: cell-based; settings: Homo sapiens, U-87 MG, 1 h, n = 4, read-out: AKT1(pS473) Absolute IC50
# Description: This homogeneous assay format uses immuno-sandwich capture of the phosphorylated analyte and then detection with antibody-coated Alphascreen beads to generate an amplified signal.
# Maintain U87MG cells in U87MG growth medium consisting of DMEM (GIBCO 11965-092) supplemented with 10% fetal bovine serum (FBS, GIBCO, 10091-141), 1% nonessential amino acids (GIBCO, 11140-050) and 1% sodium pyruvate (GIBCO, 11360-070). Harvest cells using standard cell culture procedures and then count using Vi-Cell. Plate 100 μL of U87MG cells in growth medium (50,000 cells/well) into Costar #3596 96 well plates and incubate overnight at 37° C., 5% CO2.
# Incubate for one h at 37° C., then remove the medium and add 50 μL of 1× SureFire Lysis Buffer (TGR Biosciences SureFire® Kit component) to each well and incubate at room temperature for 10 min with gentle shaking Transfer 6 μL lysate and 10 μL reaction mixture (60 parts reaction buffer/10 parts activation buffer/1 part each of donor and acceptor beads, Perkin Elmer, 6760617R) to a 384 well proxiplate (Perkin Elmer, 6006280) for the p-p70S6 kinase (Thr389) and p-AKT(Ser473) assays. Seal the plate and incubate at RT for 4 h. […] Read the plates on a Perkin Elmer EnVision equipped with a TurboModule using standard AlphaScreen® settings (Ex680 nm and Em520-620 nm). […]
# [1] = tested on: PXF 541 human tumor xenograft cells; experiment: Oncotest tumor clonogenic assay, PXF 541; type: cell-based; settings: colony formation, Pleuramesothelioma PXF 541, invasive pleuramesothelioma, read-out: Absolute IC50
compound,measurement,setting,value
"CO[C@@H](C)Cn1c(=O)n(C)c2cnc3ccc(-c4cncc(C(C)(C)O)c4)cc3c21 [Example 1, 8-[5-(1-Hydroxy-1-methylethyl)pyridin-3-yl]-1-[(2S)-2-methoxypropyl]-3-methyl-1,3-dihydro-2H-imidazo[4,5-c]quinolin-2-one]",inhibition at 0.5 mg/kg,pS240/244 S6RP; 0.5 hr post dose,9%
same,inhibition at 0.5 mg/kg,pS240/244 S6RP; 4 hr post dose,5%
same,inhibition at 1.5 mg/kg,pS240/244 S6RP; 0.5 hr post dose,4%
same,inhibition at 1.5 mg/kg,pS240/244 S6RP; 4 hr post dose,12%
same,inhibition at 3 mg/kg,pS240/244 S6RP; 0.25 hr post dose,-11%
same,inhibition at 3 mg/kg,pS240/244 S6RP; 0.5 hr post dose,9%
same,inhibition at 3 mg/kg,pS240/244 S6RP; 1 hr post dose,51%
same,inhibition at 3 mg/kg,pS240/244 S6RP; 3 hr post dose,64%
same,inhibition at 3 mg/kg,pS240/244 S6RP; 4 hr post dose,37%
same,inhibition at 6 mg/kg,pS240/244 S6RP; 0.25 hr post dose,7%
same,inhibition at 6 mg/kg,pS240/244 S6RP; 0.5 hr post dose,26%
same,inhibition at 6 mg/kg,pS240/244 S6RP; 1 hr post dose,66%
same,inhibition at 6 mg/kg,pS240/244 S6RP; 2 hr post dose,83%
same,inhibition at 6 mg/kg,pS240/244 S6RP; 4 hr post dose,58%
same,inhibition at 6 mg/kg,pS240/244 S6RP; 6 hr post dose,55%
same,inhibition at 6 mg/kg,pS240/244 S6RP; 12 hr post dose,-35%
same,inhibition at 10 mg/kg,pS240/244 S6RP; 0.5 hr post dose,-4%
same,inhibition at 10 mg/kg,pS240/244 S6RP; 1 hr post dose,69%
same,inhibition at 10 mg/kg,pS240/244 S6RP; 2 hr post dose,89%
same,inhibition at 10 mg/kg,pS240/244 S6RP; 4 hr post dose,95%
same,inhibition at 10 mg/kg,pS240/244 S6RP; 8 hr post dose,16%
same,inhibition at 12 mg/kg,pS240/244 S6RP; 0.5 hr post dose,55%
same,inhibition at 12 mg/kg,pS240/244 S6RP; 4 hr post dose,97%
same,IC50,AKT1(pS473),0.0942 µM
same,IC50,[1],0.056 µM

# Reference: patent US8658668B2, “PI3 kinase/mTOR dual inhibitor” (Eli Lilly and Company, priority 2011, dated 2014)
